Where only a bound is given, the exact number is not on record here.

Holding throughout (format): cell-based
Assay [1] deals with Protein cereblon/Serine/threonine-protein kinase B-raf (Homo sapiens, UniProt P15056+Q96SW2, G466V). Description: Protac activity at E3 ubiquitin-protein ligase/BRAF G466V mutant in human T-REx-293 cells assessed as BRAF degradation incubated for 24 hrs by plate reader assay.
In assay [2] the test system is Protein cereblon/Serine/threonine-protein kinase B-raf (Homo sapiens), P15056+Q96SW2 [V600E]. Description: Protac activity at E3 ubiquitin-protein ligase/BRAF V600E mutant in human T-REx-293 cells assessed as maximal BRAF degradation incubated for 24 hrs by plate reader assay.
Assay [3] concerns Protein cereblon/Serine/threonine-protein kinase B-raf (Homo sapiens), P15056+Q96SW2 [G466V]. Nature of the assay: Protac activity at E3 ubiquitin-protein ligase/BRAF G466V mutant in human T-REx-293 cells assessed as maximal BRAF degradation incubated for 24 hrs by plate reader assay.
For assay [4], the target named is Protein cereblon/Serine/threonine-protein kinase B-raf (Homo sapiens, UniProt P15056+Q96SW2, V600E). Nature of the assay: Protac activity at E3 ubiquitin-protein ligase/BRAF V600E mutant in human T-REx-293 cells assessed as BRAF degradation incubated for 24 hrs by plate reader assay.
Chain of Protein cereblon/Serine/threonine-protein kinase B-raf (Homo sapiens, UniProt P15056+Q96SW2, V600E) (P15056 2-766 V600E limits assumed, stated change not applied): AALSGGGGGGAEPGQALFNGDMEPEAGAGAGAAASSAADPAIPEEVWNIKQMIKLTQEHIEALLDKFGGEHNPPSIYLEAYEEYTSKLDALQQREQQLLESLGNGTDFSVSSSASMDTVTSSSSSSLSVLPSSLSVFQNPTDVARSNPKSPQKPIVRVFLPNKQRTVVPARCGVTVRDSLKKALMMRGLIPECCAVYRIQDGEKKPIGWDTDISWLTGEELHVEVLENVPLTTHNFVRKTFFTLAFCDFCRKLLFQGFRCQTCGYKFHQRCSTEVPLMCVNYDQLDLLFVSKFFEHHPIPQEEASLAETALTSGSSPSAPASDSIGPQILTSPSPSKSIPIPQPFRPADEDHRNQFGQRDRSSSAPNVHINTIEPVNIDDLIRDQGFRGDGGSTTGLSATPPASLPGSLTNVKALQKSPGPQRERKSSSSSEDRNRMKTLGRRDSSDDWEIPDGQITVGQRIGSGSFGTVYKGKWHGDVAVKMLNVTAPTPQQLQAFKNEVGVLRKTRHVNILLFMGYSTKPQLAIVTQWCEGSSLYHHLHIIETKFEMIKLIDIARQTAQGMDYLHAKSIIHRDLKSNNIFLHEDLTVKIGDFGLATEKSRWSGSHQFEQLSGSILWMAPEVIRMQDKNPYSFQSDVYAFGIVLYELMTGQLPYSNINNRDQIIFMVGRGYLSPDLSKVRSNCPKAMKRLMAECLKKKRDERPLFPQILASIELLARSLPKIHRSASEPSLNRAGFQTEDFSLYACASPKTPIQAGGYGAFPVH
Chain of Protein cereblon/Serine/threonine-protein kinase B-raf (Homo sapiens, UniProt P15056+Q96SW2, V600E) (Q96SW2 whole entry, stated change not applied): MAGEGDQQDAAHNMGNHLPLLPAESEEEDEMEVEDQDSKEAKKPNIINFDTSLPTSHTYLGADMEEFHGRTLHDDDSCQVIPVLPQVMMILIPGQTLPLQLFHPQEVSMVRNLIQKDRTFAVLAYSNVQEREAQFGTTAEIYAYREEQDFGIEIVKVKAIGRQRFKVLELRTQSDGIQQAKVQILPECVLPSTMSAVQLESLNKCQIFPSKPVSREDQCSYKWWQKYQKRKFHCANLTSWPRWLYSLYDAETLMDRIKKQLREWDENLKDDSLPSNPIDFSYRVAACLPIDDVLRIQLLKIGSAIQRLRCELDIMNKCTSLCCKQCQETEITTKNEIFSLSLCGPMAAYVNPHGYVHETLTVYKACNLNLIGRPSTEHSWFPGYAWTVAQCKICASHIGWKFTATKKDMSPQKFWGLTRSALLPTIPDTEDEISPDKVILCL
For assay [5], the target named is T1, RAF proto-oncogene serine/threonine-protein kinase (Homo sapiens, UniProt P04049). Description: Inhibition of RAF in human A-375 cells assessed as ERK phosphorylation at Thr202/Tyr204 residue incubated for 6 hrs by HTRF assay. A general note: Time-resolved FRET reads energy transfer from a long-lived donor to a nearby acceptor.
T1 sequence (P04049 whole entry): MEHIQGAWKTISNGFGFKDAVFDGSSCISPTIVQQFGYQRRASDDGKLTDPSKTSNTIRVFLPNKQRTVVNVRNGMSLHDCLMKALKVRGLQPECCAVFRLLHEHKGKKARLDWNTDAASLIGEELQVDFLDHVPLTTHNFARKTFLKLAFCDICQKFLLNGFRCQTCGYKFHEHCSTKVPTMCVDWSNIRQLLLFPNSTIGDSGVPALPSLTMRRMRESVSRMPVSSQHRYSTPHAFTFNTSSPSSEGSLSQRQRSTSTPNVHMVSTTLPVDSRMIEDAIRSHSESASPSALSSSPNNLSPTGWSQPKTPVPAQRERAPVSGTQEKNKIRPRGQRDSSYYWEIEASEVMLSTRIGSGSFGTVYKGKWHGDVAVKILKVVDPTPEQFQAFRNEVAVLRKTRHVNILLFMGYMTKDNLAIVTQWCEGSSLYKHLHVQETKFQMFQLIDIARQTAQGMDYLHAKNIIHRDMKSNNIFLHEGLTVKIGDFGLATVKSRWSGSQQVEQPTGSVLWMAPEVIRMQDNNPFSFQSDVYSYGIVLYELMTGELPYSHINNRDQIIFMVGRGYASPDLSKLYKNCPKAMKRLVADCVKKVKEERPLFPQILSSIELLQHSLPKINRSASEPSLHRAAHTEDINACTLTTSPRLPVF
The target of assay [6] is T1, RAF proto-oncogene serine/threonine-protein kinase. Nature of the assay: Inhibition of RAF in human WM3629 cells assessed as ERK phosphorylation at Thr202/Tyr204 residue incubated for 6 hrs by HTRF assay.

Consider `O=C1CCC(N2Cc3cc(N4CCC(CN5CC6(CCN(c7ncc(-c8cnc9[nH]cc(C(=O)c%10c(F)ccc(NS(=O)(=O)N%11CC[C@@H](F)C%11)c%10F)c9c8)cn7)C6)C5)CC4)ccc3C2=O)C(=O)N1` (some centres not stated), for which the DC50 (usually the concentration at which degradation of the target reaches its halfway point) in assay [1] is 1 nM; in assay [4] it was ≤ 5 nM. Further, the Emax (as a rule, the size of the effect at its maximum, as opposed to the concentration needed) in assay [2] is 35%; in assay [3], > 70%.

`Cc1ncc(NC(=O)N2CC[C@@H](CC(F)(F)F)C2)cc1-c1cnc(OCCN2CCN(c3ccc4c(c3)C(=O)N(C3CCC(=O)NC3=O)C4=O)CC2)c(N2CCOCC2)c1` (some centres not stated): the IC50 (as a rule, the concentration that gives 50% inhibition) came to 1000 nM in assay [5] and 10 nM in assay [6].

`COc1cc(N2CCC(CN3CCC4(CC3)CCN(c3ccc(-c5cnc6[nH]cc(C(=O)c7c(F)ccc(NS(=O)(=O)N8CC[C@@H](F)C8)c7F)c6c5)cc3)CC4)CC2)cc2c1C(=O)N(C1CCC(=O)NC1=O)C2` (some centres not stated): the DC50 in assay [1] was 1 nM; in assay [4] it was ≤ 5 nM. In addition, the maximal response (Emax) in assay [2] and in assay [3] was 35% each time.

For the molecule `Cc1ccc(NC(=O)N2CC[C@@H](CC(F)(F)F)C2)cc1-c1cnc(OCCN2CCN(c3ccc4c(c3)C(=O)N(C3CCC(=O)NC3=O)C4=O)CC2)c(N2CCOCC2)c1` (some centres not stated), the half-maximal inhibitory concentration (IC50) turned out to be 100 nM in assay [5] and 10 nM in assay [6].
